From PubChem BioAssay AID330 (DTP/NCI, 2004) come the findings set out here.

Several values for one entry are separate records, joined by “and”; a condition that tells them apart may be missing. Equal entries are not always repeated. Inconclusive results and toxic doses are left out.

The test system of this assay is P388 leukemia ip, CD2F1 mice, survival T/C. In words: NCI In Vivo Anticancer Drug Screen. Data for tumor model P388 Leukemia (intraperitoneal) in CD2F1 (CDF1) mice. Particulars: endpoint: median survival time, higher = longer survival. An outline of the steps: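 Mice carrying the transplanted tumor received test compound or vehicle. Survival was recorded in each group, and the value is the treated-group measurement divided by that of the vehicle-treated control group.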

Setting [1] is: dose: 50.0 mg/kg/injection, schedule: Q01DX009 (ip), vehicle: saline with Tween-80.
Where [2] appears, read: dose: 100.0 mg/kg/injection, schedule: Q01DX009 (ip), vehicle: saline with Tween-80.
The mark [3] stands for this setting: dose: 200.0 mg/kg/injection, schedule: Q01DX009 (ip), vehicle: saline with Tween-80.
[4] abbreviates: dose: 12.5 mg/kg/injection, schedule: Q01DX009 (ip), vehicle: saline.
Setting [5] is: dose: 25.0 mg/kg/injection, schedule: Q01DX009 (ip), vehicle: saline.
Setting [6] is: dose: 50.0 mg/kg/injection, schedule: Q01DX009 (ip), vehicle: saline.
The mark [7] stands for this setting: dose: 100.0 mg/kg/injection, schedule: Q01DX009 (ip), vehicle: saline.
Where [8] appears, read: dose: 200.0 mg/kg/injection, schedule: Q01DX009 (ip), vehicle: saline.

For the molecule `CC(C)CNC(=O)OCc1c(COC(=O)NCC(C)C)c(-c2ccc(Cl)c(Cl)c2)n2c1CCC2`, the T/C reads like this: (dose: 6.25 mg/kg/injection, schedule: Q01DX009 (ip), vehicle: distilled water + Tween-80) 111 % of control and 116 % of control; (dose: 25.0 mg/kg/injection, schedule: Q01DX009 (ip), vehicle: distilled water + Tween-80) 158 % of control and 171 % of control; (dose: 50.0 mg/kg/injection, schedule: Q01DX009 (ip), vehicle: distilled water + Tween-80) 182 % of control and 198 % of control; (dose: 100.0 mg/kg/injection, schedule: Q01DX009 (ip), vehicle: distilled water + Tween-80) 180 % of control; (dose: 200.0 mg/kg/injection, schedule: Q01DX009 (ip), vehicle: distilled water + Tween-80) 100 % of control and 92 % of control.
As for `O=C1NC(=O)/C(=C2\CCOC2=O)N1`, the T/C under setting [1] is 100 % of control, the T/C under setting [2] is 94 % of control and the T/C under setting [3] was 100 % of control.
As to `O=C(C1=C(NCc2ccccc2)CCCC1)c1ccccc1`, the T/C is, setting by setting: under setting [4], 97 % of control; under setting [5], 100 % of control; under setting [6], 104 % of control and 109 % of control.
In the case of `Cc1[nH]ccc(=O)c1O`, the T/C reads like this: (dose: 16.0 mg/kg/injection, schedule: Q01DX009 (ip), vehicle: saline with Tween-80) 105 % of control; (dose: 32.0 mg/kg/injection, schedule: Q01DX009 (ip), vehicle: saline with Tween-80) 110 % of control; under setting [6], 123 % of control; under setting [7], 124 % of control; under setting [8], 153 % of control; (dose: 400.0 mg/kg/injection, schedule: Q01DX009 (ip), vehicle: saline) 98 % of control. Further, where the note is “dose: 512.0 mg/kg/injection, schedule: Q01DX009 (ip), vehicle: saline with Tween-80”, the T/C is 91 % of control.
As to `CC(=O)[O][Sn]([CH3])([CH3])[c]1ccccc1`, the T/C (dose: 1.56 mg/kg/injection, schedule: Q01DX009 (ip), vehicle: saline) is 98 % of control and 104 % of control; the T/C (dose: 3.12 mg/kg/injection, schedule: Q01DX009 (ip), vehicle: saline) was 98 % of control and 110 % of control; the T/C (dose: 6.25 mg/kg/injection, schedule: Q01DX009 (ip), vehicle: saline) was 98 % of control and 117 % of control and 96 % of control; the T/C under setting [4] was 104 % of control and 120 % of control.
`C/C=C1\C(=O)O[C@@]23C=C[C@H]4C(C(=O)OC)=CO[C@@H](O[C@H]12)[C@H]43`: the T/C is 100 % of control (dose: 0.63 mg/kg/injection, schedule: Q01DX009 (ip), vehicle: Klucel (hydroxypropylcellulose) (HPC)); 98 % of control (dose: 0.63 mg/kg/injection, schedule: Q01DX009 (ip), vehicle: saline); 100 % of control (dose: 1.25 mg/kg/injection, schedule: Q01DX009 (ip), vehicle: Klucel (hydroxypropylcellulose) (HPC)); 98 % of control (dose: 1.25 mg/kg/injection, schedule: Q01DX009 (ip), vehicle: saline); 98 % of control (dose: 2.5 mg/kg/injection, schedule: Q01DX009 (ip), vehicle: Klucel (hydroxypropylcellulose) (HPC)); 100 % of control (dose: 2.5 mg/kg/injection, schedule: Q01DX009 (ip), vehicle: saline). The T/C by setting is: (dose: 5.0 mg/kg/injection, schedule: Q01DX009 (ip), vehicle: Klucel (hydroxypropylcellulose) (HPC)) 100 % of control; (dose: 5.0 mg/kg/injection, schedule: Q01DX009 (ip), vehicle: saline) 98 % of control; (dose: 10.0 mg/kg/injection, schedule: Q01DX009 (ip), vehicle: saline) 104 % of control; (dose: 20.0 mg/kg/injection, schedule: Q01DX009 (ip), vehicle: saline) 113 % of control.
For the molecule `CCCCCCCCCCCCCCCCSC1=CC(=O)C(Cl)=C(Cl)C1=O`, the T/C runs as follows: (dose: 10.0 mg/kg/injection, schedule: Q01DX009 (ip), vehicle: Klucel (hydroxypropylcellulose) (HPC)) 96 % of control; (dose: 20.0 mg/kg/injection, schedule: Q01DX009 (ip), vehicle: Klucel (hydroxypropylcellulose) (HPC)) 96 % of control; (dose: 40.0 mg/kg/injection, schedule: Q01DX009 (ip), vehicle: Klucel (hydroxypropylcellulose) (HPC)) 95 % of control.
Regarding `CCSC(=O)c1cc(C(=O)SCC)cc(C(C)(C)C)c1`, the T/C under setting [5] was 100 % of control and 105 % of control; the T/C under setting [1] is 100 % of control; the T/C under setting [6] was 98 % of control and 95 % of control; the T/C under setting [2] was 114 % of control; the T/C under setting [7] was 98 % of control and 101 % of control; the T/C under setting [3] is 124 % of control. For the same molecule, under setting [8], the T/C is 107 % of control and 97 % of control.
`CCN(CC)CCCC(C)NCC#CCNC(C)CCCN(CC)CC` (centres undefined): the T/C runs as follows: (dose: 1.56 mg/kg/injection, schedule: Q01DX009 (ip), vehicle: water) 105 % of control; (dose: 3.13 mg/kg/injection, schedule: Q01DX009 (ip), vehicle: water) 108 % of control; (dose: 6.25 mg/kg/injection, schedule: Q01DX009 (ip), vehicle: water) 104 % of control; (dose: 12.5 mg/kg/injection, schedule: Q01DX009 (ip), vehicle: water) 105 % of control.
Regarding `C(CCOCC1CO1)COCC1CO1` (centres undefined), the T/C runs as follows: (dose: 25.0 mg/kg/injection, schedule: Q01DX009 (ip), vehicle: Klucel (hydroxypropylcellulose) (HPC)) 108 % of control and 111 % of control; (dose: 50.0 mg/kg/injection, schedule: Q01DX009 (ip), vehicle: Klucel (hydroxypropylcellulose) (HPC)) 110 % of control; (dose: 100.0 mg/kg/injection, schedule: Q01DX009 (ip), vehicle: Klucel (hydroxypropylcellulose) (HPC)) 117 % of control.
For the molecule `CCCCOc1ccc2nc(C)cc(N=[N+]=[N-])c2c1`, the T/C is 94 % of control (dose: 30.0 mg/kg/injection, schedule: Q01DX005 (ip), vehicle: saline with Tween-80); 86 % of control and 94 % of control (dose: 60.0 mg/kg/injection, schedule: Q01DX005 (ip), vehicle: saline with Tween-80); 97 % of control (dose: 120.0 mg/kg/injection, schedule: Q01DX005 (ip), vehicle: saline with Tween-80); 92 % of control (dose: 240.0 mg/kg/injection, schedule: Q01DX005 (ip), vehicle: saline with Tween-80).
For `NC1(C(=O)NCSc2ccccc2)CC=CCC1` (centres undefined), the T/C runs as follows: (dose: 45.5 mg/kg/injection, schedule: Q01DX005 (ip), vehicle: Klucel (hydroxypropylcellulose) (HPC)) 97 % of control; (dose: 91.0 mg/kg/injection, schedule: Q01DX005 (ip), vehicle: Klucel (hydroxypropylcellulose) (HPC)) 103 % of control; (dose: 182.0 mg/kg/injection, schedule: Q01DX005 (ip), vehicle: Klucel (hydroxypropylcellulose) (HPC)) 96 % of control.
Consider `OCC1OC(OC2C3CSC(O3)C(O)C2O)C(O)C(O)C1O` (centres undefined), for which the T/C by setting is: under setting [6], 105 % of control; under setting [7], 106 % of control; under setting [8], 106 % of control.
Take `Cc1ccc(/C=C/C(=O)C(CN(C)C)CN(C)C)cc1`: the T/C is, setting by setting: (dose: 1.56 mg/kg/injection, schedule: Q01DX005 (ip), vehicle: saline) 100 % of control; (dose: 3.12 mg/kg/injection, schedule: Q01DX005 (ip), vehicle: saline) 106 % of control.
For `CCCCN1C(=O)C(CC(=O)OCC)SC1=S` (centres undefined), the T/C runs as follows: (dose: 60.0 mg/kg/injection, schedule: Q01DX005 (ip), vehicle: Klucel (hydroxypropylcellulose) (HPC)) 95 % of control; (dose: 120.0 mg/kg/injection, schedule: Q01DX005 (ip), vehicle: Klucel (hydroxypropylcellulose) (HPC)) 97 % of control; (dose: 240.0 mg/kg/injection, schedule: Q01DX005 (ip), vehicle: Klucel (hydroxypropylcellulose) (HPC)) 97 % of control.
Consider `S=C1N(c2ccc(Br)cc2)C2=Nc3ccccc3SC(=C2N=Nc2ccccc2Cl)N1c1ccc(Cl)cc1`, for which the T/C is 97 % of control (dose: 50.0 mg/kg/injection, schedule: Q01DX005 (ip), vehicle: saline with Tween-80); 93 % of control (dose: 100.0 mg/kg/injection, schedule: Q01DX005 (ip), vehicle: saline with Tween-80); 93 % of control (dose: 200.0 mg/kg/injection, schedule: Q01DX005 (ip), vehicle: saline with Tween-80).
Turning to `COC(=O)C1C2C=CC(CC2)C1C(=O)OC` (centres undefined), the T/C (dose: 100.0 mg/kg/injection, schedule: Q04DX003 (ip), vehicle: saline with Tween-80) is 98 % of control; the T/C (dose: 200.0 mg/kg/injection, schedule: Q04DX003 (ip), vehicle: saline with Tween-80) is 102 % of control; the T/C (dose: 400.0 mg/kg/injection, schedule: Q04DX003 (ip), vehicle: saline with Tween-80) was 89 % of control.
For the molecule `COCC(=O)OC`, the T/C was 97 % of control under setting [5], 100 % of control under setting [6], 98 % of control under setting [7] and 92 % of control under setting [8].
